Experimental data: ChEMBL document CHEMBL1201862, “PubChem BioAssay data set” (2004)
Activity calls are given as the source filed them.

Experiments:
[1] = molecular target: T1, Methionyl-tRNA synthetase, putative (Trypanosoma brucei brucei, UniProt Q38C91); format: functional, Trypanosoma brucei brucei strain 927/4 GUTat10.1
T1 sequence (Q38C91 whole entry): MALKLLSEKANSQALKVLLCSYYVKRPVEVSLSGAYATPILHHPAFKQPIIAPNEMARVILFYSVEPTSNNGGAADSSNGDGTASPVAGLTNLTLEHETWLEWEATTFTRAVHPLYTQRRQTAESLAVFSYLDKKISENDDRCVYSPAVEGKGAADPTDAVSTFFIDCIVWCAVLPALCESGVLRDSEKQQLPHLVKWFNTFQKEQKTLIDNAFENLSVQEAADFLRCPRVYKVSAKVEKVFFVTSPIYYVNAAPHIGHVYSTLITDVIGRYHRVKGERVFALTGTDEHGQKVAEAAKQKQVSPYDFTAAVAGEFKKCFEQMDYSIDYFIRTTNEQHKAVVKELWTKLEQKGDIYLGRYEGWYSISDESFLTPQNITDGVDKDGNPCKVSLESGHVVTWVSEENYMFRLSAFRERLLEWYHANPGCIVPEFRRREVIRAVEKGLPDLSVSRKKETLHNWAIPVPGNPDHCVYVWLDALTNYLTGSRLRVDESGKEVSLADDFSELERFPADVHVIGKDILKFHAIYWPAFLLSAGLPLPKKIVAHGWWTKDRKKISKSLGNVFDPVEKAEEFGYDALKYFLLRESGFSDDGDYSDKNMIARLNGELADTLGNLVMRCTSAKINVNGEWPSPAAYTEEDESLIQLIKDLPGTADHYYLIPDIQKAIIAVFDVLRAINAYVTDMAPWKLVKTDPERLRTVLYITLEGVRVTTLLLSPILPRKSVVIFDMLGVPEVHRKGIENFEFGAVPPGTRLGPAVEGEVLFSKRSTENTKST

[2] = Counterscreen for inhibitors of Trypanosoma brucei methionyl tRNA synthetase (MetRS): Luminescence-based cell-based high throughput dose response assay to identify compounds that are cytotoxic to Jurkat human T lymphocyte cells.; format: functional
[3] = molecular target: T1, Methionyl-tRNA synthetase, putative; format: functional, Trypanosoma brucei brucei strain 927/4 GUTat10.1; remark: listed apart in the source
[4] = molecular target: Nuclear receptor subfamily 5 group A member 2 (Homo sapiens, UniProt O00482); format: functional, cell-based;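 note: HEK293T cells transfected with LRH-1 and a StAR promoter luciferase reporter; potency for inhibitors that lower LRH-1 driven reporter light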
[5] = molecular target: Steroidogenic factor 1 (Homo sapiens, UniProt Q13285); assay: Counterscreen for inverse agonists of the liver receptor homolog-1 (LRH-1; NR5A2): Luminescence-based cell-based high throughput dose response assay to identify inverse agonists of the Steroidogenic Factor 1 Nuclear Receptor (SF1; NR5A1).; format: functional
[6] = StAR promoter reporter inhibition counter-screen, dose response, counter-screen for LRH-1 inverse agonist project, cell-based, luminescence, luciferase reporter (AID 651969); format: functional
[7] = molecular target: T2, Small ubiquitin-related modifier 1 (Homo sapiens, UniProt P63165); assay: inhibitors of SUMO1 peptide binding, dose response, biochemical, fluorescence polarization, uHTS hits (AID 624382); format: functional; settings: read-out: IC50_Mean
[8] = molecular target: T2, Small ubiquitin-related modifier 1; assay: inhibitors of SUMO1 partner interactions, dose response, biochemical, FRET (AID 624383); format: functional; settings: read-out: IC50_Mean
[9] = molecular target: T3, Carboxy-terminal domain RNA polymerase II polypeptide A small phosphatase 1 (Homo sapiens, UniProt Q9GZU7); assay: inhibitors of CTDSP1, concentration-response testing, biochemical assay, absorbance-based, actives from ultra-high-throughput screening (AID 540297); format: functional
T3 sequence (Q9GZU7 whole entry): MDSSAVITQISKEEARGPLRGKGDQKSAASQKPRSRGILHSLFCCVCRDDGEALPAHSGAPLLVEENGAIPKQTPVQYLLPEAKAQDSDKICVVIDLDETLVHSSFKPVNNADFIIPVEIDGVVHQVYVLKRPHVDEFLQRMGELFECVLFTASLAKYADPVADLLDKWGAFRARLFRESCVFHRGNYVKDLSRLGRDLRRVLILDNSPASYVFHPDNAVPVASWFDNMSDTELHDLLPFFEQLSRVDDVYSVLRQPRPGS

[10] = system: Vero; assay: Vero cell toxicity, dose response, cytotoxicity control, plate reader, cherry-pick samples (AID 687020); format: functional, cell-based; settings: Chlorocebus sabaeus
[11] = molecular target: T4, Sentrin-specific protease 7 (Homo sapiens, UniProt Q9BQF6); format: functional;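 note: Luminescence-based dose-response confirmation of ultra-high-throughput screening hits, measuring inhibition of SENP7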
T4 sequence (Q9BQF6 whole entry): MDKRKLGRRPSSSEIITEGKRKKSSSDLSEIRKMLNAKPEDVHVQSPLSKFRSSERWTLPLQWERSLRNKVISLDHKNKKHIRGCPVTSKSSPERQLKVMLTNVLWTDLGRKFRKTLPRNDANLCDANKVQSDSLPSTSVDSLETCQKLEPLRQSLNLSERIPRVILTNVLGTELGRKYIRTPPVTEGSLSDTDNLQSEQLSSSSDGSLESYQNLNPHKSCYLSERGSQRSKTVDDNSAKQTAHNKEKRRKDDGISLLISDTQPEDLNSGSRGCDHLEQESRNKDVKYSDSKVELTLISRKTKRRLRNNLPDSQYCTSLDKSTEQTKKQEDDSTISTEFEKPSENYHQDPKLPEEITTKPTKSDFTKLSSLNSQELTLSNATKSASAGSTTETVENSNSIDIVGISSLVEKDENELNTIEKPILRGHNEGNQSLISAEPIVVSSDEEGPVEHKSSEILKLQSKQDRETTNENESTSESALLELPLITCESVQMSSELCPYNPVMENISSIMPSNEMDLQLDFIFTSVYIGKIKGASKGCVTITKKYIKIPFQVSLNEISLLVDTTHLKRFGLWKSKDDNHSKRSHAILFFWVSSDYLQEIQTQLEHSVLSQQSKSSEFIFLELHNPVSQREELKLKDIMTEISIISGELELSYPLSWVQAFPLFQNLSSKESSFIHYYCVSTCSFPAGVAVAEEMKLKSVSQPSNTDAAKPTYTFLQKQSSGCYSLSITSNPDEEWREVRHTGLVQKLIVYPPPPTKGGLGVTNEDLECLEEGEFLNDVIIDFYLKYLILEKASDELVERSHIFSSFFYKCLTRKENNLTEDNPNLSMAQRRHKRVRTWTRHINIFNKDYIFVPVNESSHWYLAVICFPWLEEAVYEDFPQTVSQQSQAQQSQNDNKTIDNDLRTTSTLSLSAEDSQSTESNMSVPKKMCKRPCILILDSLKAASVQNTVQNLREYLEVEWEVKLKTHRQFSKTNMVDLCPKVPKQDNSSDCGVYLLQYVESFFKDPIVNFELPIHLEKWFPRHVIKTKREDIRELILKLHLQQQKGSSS

[12] = molecular target: T5, Sentrin-specific protease 8 (Homo sapiens, UniProt Q96LD8); format: functional;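 note: luminescence read-out of SENP8 inhibition, dose-response confirmation following an ultra-high-throughput screen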
T5 sequence (Q96LD8 whole entry): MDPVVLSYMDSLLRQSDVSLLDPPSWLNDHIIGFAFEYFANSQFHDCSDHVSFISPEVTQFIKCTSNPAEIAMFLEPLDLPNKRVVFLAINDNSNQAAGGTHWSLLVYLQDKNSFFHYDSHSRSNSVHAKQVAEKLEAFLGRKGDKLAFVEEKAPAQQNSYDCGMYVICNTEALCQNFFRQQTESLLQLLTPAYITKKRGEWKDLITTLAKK

[13] = molecular target: T6, Sentrin-specific protease 6 (Homo sapiens, UniProt Q9GZR1); format: functional;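 note: Luminescence-based dose-response confirmatory assay of SENP6 inhibition, following up an ultra-high-throughput screen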
T6 sequence (Q9GZR1 whole entry): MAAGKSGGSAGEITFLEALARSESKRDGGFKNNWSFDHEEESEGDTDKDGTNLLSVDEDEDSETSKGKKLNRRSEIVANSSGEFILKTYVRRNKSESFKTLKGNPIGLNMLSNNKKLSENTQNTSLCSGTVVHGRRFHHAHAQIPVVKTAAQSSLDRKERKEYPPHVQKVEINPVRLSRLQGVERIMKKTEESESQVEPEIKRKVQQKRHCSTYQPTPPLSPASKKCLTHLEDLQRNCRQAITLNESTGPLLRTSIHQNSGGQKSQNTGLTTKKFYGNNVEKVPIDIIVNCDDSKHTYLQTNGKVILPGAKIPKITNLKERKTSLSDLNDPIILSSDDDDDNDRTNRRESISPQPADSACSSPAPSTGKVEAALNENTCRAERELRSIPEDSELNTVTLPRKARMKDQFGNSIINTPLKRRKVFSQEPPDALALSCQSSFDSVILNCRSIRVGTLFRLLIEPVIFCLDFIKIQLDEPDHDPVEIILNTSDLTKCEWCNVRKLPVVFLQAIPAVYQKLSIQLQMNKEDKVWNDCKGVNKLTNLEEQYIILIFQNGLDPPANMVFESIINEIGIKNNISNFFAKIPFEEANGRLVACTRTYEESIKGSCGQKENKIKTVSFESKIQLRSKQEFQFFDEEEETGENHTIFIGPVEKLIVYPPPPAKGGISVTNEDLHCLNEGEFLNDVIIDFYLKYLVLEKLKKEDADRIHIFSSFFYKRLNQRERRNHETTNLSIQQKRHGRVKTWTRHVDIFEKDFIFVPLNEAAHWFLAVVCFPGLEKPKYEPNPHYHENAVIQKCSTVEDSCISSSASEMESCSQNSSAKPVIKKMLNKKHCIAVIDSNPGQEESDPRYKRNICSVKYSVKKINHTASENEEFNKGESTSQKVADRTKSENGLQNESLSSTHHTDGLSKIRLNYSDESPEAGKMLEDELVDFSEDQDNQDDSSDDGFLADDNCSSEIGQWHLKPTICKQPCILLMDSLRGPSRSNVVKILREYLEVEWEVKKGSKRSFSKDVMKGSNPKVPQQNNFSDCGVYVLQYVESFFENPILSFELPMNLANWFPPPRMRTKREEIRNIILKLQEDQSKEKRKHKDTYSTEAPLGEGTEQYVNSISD

[14] = molecular target: T7, Caspase-6 (Homo sapiens, UniProt P55212); assay: human caspase-6 inhibitors, dose response, biochemical, VEID-R110 fluorescence, cherry-pick (AID 720632)
T7 sequence (P55212 whole entry): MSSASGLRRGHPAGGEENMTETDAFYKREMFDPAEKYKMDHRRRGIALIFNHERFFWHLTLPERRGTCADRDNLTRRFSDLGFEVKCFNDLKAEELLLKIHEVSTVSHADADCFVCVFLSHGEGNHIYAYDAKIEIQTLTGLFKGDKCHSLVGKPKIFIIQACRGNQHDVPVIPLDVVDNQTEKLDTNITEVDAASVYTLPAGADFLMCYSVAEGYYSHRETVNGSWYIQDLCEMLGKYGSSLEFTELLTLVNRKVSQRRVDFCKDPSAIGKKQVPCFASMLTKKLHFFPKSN

[15] = molecular target: T8, Caspase-3 (Homo sapiens, UniProt P42574); format: functional;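 note: Dose-response selectivity test against caspase-3 for candidate inhibitors of sentrin-specific proteases (SENPs)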
T8 sequence (P42574 whole entry): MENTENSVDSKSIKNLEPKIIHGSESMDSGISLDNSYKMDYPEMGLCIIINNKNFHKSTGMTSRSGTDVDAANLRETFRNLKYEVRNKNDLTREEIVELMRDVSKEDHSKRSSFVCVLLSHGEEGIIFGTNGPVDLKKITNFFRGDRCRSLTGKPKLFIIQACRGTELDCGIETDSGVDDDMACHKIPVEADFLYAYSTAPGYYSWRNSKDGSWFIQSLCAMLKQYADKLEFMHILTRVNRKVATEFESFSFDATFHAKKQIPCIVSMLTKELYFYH

[16] = molecular target: T9, Mitochondrial peptide methionine sulfoxide reductase (Bos taurus, UniProt P54149); assay: Absorbance-based biochemical high throughput dose response assay for activators of Methionine sulfoxide reductase A (MsrA).; format: functional
T9 sequence (P54149 whole entry): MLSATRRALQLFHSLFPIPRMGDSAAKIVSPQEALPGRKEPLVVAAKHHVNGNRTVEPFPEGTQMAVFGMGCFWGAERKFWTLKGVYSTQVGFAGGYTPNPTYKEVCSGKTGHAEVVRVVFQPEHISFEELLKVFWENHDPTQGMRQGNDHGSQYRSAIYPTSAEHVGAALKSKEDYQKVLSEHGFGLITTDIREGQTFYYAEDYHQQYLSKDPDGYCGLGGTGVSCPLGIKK

[17] = molecular target: T10, Tyrosyl-DNA phosphodiesterase 2 (Homo sapiens, UniProt O95551); assay: human TDP2 enzyme inhibitors, dose response, biochemical, epi absorbance, IC50 (AID 743297)
T10 sequence (O95551 whole entry): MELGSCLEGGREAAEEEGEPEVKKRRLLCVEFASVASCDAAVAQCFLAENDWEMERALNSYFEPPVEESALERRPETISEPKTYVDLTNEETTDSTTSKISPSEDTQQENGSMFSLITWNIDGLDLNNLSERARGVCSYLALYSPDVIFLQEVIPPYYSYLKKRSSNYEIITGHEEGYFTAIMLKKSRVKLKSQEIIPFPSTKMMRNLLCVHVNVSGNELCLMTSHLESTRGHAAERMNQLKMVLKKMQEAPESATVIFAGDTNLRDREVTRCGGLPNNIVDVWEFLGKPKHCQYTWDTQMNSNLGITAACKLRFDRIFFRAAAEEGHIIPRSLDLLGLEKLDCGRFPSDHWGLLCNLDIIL

Nuclear receptor subfamily 5 group A member 2, sequence (O00482 whole entry): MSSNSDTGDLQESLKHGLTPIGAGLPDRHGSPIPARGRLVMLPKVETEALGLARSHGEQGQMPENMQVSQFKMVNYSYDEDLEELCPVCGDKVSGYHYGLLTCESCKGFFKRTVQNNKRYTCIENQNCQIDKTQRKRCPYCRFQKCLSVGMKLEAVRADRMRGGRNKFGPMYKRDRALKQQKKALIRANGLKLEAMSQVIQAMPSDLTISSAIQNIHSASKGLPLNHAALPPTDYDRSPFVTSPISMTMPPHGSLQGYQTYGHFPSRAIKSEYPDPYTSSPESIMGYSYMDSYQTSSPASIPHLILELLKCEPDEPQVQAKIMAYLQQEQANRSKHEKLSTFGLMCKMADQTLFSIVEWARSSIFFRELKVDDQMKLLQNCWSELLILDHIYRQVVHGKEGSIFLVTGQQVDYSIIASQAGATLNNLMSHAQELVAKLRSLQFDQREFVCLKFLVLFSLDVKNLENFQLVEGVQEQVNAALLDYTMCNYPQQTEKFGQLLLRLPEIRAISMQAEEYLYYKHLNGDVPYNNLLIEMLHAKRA
Steroidogenic factor 1, sequence (Q13285 whole entry): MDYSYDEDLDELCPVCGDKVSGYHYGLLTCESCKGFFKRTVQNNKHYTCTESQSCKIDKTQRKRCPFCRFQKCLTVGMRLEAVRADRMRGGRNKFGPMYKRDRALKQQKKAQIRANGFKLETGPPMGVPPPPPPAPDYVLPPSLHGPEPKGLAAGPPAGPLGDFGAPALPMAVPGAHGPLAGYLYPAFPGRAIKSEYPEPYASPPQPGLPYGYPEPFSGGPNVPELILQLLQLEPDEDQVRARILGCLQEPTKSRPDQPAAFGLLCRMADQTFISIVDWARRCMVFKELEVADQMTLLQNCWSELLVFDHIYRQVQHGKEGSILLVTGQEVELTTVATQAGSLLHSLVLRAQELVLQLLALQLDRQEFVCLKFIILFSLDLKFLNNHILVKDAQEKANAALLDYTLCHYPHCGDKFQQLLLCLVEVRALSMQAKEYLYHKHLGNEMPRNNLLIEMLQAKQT
T2 sequence (P63165 whole entry): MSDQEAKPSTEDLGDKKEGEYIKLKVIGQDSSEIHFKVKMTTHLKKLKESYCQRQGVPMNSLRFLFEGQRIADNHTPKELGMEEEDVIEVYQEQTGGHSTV

O=C(NCc1nc2ccccc2[nH]1)C1=C[C@H](C2CCCCC2)C[C@H](OCCCCO)O1
IC50 [1]: 5.64 µM (active) | IC50 [2]: 28.8 µM (inactive) | IC50 [3]: 3.14 µM (active)

COc1ccc(S(=O)(=O)Nc2ccc3c(c2)n(C)c(=O)n3C)cc1F
IC50 [4]: 8.04 µM (active) | IC50 [5]: 9.64 µM (active) | IC50 [6]: 34.5 µM (inactive)

COCC(=O)NC1CCN(CC(=O)Nc2ccc(OC)cc2[N+](=O)[O-])CC1
IC50 [4]: 3.9 µM (active) | IC50 [5]: 1.37 µM (active) | IC50 [6]: 35.9 µM (inactive)

COc1ccc(Nc2nnc(-c3ccncc3)s2)cc1Cl
IC50 [7]: > 66.6 µM (inactive) | IC50 [8]: 6.3 µM (active) | IC50 [9]: 4.85 µM (active)

O=C(CSc1nc2ncccc2[nH]1)Nc1ccc2c(c1)OCO2
IC50 [1]: 81.6 µM (inactive) | IC50 [3]: 30.3 µM (inactive)

COc1ccc(N2CCN(c3cc(C(=O)NC4CCCCC4)ncn3)CC2)cc1OC
AC50 [10]: 29.7 µM (active)

CCN1CCN(S(=O)(=O)c2ccc(Cl)c(C(=O)N(C)CCOc3ccc(Cl)cc3)c2)CC1
AC50 [10]: 21.1 µM (active)

O=C(CSc1nc2ccc[nH]c-2n1)Nc1ccc2c(c1)OCO2
IC50 [2]: 83.3 µM (inactive)

CC1CCCC(NC(=O)COC(=O)c2ccc([N+](=O)[O-])s2)C1C (centres undefined)
IC50 [11]: 8.12 µM (active) | IC50 [12]: 5.63 µM (active) | IC50 [13]: 6.5 µM (active) | AC50 [14]: 8.44 µM (active) | IC50 [15]: 13.7 µM (active) | EC50 [16]: 22.9 µM (inactive) | IC50 [17]: 85.5 µM (inactive)
